Test results from patent US8808771B2, “Active ingredient delivery system with an amorphous metal salt as carrier” (Firmenich SA, priority 2006, dated 2014).

Assay: Extinction coefficient (phenol band at 280 nm) before and after addition of ACAP, entrapment of naringin
Type: physicochemical
Conditions: for E-value (extinction coefficient, phenol band at 280 nm): diluted 1:12 with 30 wt % ethanolic solution, slightly acidic
Procedure: A conventional double jet precipitation process, which can be operated both batch wise and in a continuous mode, was used. The active ingredient (Naringin) was firstly dissolved in ethanol or ethanol/water medium. A first stream comprising Ca^2+ ions (provided as calcium chloride solution) and a second stream comprising PO4^3− ions (provided as sodium phosphate), were prepared in order to give a resulting carrier component comprising ACAP solution at 10 g/L. A third stream comprising a standard solution of 2 g/L of naringin in 30% ethanol solution was then prepared.
The three streams were jetted separately into a mixing chamber using a standard y-mixer with the reaction being stopped for equal volumes, i.e. 10 ml Ca^2+ stock solution plus 10 ml PO4^3− stock solution into 10 ml naringin. The extinction coefficient (strong phenol band at 280 nm, slightly acidic conditions) was determined after standardized dilution with 30 wt % ethanolic solution (1:12) and was compared before and after the addition of the ACAP.

C[C@@H]1O[C@@H](O[C@H]2[C@H](Oc3cc(O)c4c(c3)O[C@H](c3ccc(O)cc3)CC4=O)O[C@H](CO)[C@@H](O)[C@@H]2O)[C@H](O)[C@H](O)[C@H]1O [naringin, Naringin]
E-value (extinction coefficient, phenol band at 280 nm) (after addition of ACAP): 1.5 | E-value (extinction coefficient, phenol band at 280 nm) (before addition of ACAP): 3.75 | naringin entrapped by the ACAP (calculated from the lowering of the E-value): at least 70%
